How the values were obtained:
[1] = biological target: T1, ACL (Homo sapiens (Human), UniProt P53396); experiment: ADP-Glo Assay
Target sequence in this assay (P53396 other isoform, or with tags, fused parts or gaps isoform P53396-2): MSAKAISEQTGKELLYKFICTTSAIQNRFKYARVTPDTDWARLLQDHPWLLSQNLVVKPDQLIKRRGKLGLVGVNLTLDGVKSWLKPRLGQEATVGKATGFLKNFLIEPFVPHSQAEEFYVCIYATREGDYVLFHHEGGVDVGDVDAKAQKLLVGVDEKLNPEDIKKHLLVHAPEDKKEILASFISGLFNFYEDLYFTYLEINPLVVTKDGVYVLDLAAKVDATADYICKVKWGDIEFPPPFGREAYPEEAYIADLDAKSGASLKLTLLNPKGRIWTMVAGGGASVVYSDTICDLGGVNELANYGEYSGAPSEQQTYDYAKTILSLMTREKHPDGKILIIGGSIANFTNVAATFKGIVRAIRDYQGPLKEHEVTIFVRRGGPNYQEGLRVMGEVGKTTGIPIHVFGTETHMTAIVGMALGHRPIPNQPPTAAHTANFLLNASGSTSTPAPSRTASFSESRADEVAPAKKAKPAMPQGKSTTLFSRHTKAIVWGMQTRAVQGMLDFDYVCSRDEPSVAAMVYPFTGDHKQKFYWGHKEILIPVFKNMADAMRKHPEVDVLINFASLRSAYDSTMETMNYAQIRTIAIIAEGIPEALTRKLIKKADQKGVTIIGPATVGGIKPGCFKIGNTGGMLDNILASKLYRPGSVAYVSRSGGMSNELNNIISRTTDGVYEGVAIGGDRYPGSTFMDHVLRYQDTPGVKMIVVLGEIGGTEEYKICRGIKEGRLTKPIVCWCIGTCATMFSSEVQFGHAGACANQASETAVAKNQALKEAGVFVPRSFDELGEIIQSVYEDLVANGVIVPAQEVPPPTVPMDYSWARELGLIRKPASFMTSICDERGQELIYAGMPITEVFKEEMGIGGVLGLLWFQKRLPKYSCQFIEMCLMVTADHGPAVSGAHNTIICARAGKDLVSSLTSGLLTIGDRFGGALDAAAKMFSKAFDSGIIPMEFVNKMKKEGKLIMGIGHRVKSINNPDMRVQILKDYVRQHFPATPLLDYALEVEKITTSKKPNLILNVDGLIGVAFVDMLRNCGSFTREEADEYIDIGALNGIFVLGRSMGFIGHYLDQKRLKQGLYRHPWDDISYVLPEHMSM
Description: Compounds of the present invention were evaluated in an ADP-GLO assay as follows:
b) Add 0.1 μL diluted cpd solution to assay plate, each dose with 2 replicates c) Centrifuge 1000 RPM for 1 min d) Add 5 μL ACL working solution to 384-well assay plate, centrifuge 1000 RPM for 1 min e) Incubate at 25° C. for 15 min f) Add 5 μL substrate working solution to initiate reaction
h) Reference final conc: 30 uM starting Conc, 3× dilution, 11+0 points. Test cpd conc: 30/100 uM starting Conc, 3× dilution, 11+0 points. i) Incubate at 25° C. for 60 min j) Add 10 μL ADP Glo reagent, centrifuge 1000 RPM for 1 min k) Incubate at 25° C. for 40 min l) Add 20 μL kinase detection reagent, centrifuge 1000 RPM for 1 min m) Incubate at 25° C. for 40 min n) Read on Envision for US LUM as RLU

[2] = biological target: T1, ACL; experiment: ACLY-MDH Coupled Assay
Target sequence in this assay (P53396 whole entry, species assumed): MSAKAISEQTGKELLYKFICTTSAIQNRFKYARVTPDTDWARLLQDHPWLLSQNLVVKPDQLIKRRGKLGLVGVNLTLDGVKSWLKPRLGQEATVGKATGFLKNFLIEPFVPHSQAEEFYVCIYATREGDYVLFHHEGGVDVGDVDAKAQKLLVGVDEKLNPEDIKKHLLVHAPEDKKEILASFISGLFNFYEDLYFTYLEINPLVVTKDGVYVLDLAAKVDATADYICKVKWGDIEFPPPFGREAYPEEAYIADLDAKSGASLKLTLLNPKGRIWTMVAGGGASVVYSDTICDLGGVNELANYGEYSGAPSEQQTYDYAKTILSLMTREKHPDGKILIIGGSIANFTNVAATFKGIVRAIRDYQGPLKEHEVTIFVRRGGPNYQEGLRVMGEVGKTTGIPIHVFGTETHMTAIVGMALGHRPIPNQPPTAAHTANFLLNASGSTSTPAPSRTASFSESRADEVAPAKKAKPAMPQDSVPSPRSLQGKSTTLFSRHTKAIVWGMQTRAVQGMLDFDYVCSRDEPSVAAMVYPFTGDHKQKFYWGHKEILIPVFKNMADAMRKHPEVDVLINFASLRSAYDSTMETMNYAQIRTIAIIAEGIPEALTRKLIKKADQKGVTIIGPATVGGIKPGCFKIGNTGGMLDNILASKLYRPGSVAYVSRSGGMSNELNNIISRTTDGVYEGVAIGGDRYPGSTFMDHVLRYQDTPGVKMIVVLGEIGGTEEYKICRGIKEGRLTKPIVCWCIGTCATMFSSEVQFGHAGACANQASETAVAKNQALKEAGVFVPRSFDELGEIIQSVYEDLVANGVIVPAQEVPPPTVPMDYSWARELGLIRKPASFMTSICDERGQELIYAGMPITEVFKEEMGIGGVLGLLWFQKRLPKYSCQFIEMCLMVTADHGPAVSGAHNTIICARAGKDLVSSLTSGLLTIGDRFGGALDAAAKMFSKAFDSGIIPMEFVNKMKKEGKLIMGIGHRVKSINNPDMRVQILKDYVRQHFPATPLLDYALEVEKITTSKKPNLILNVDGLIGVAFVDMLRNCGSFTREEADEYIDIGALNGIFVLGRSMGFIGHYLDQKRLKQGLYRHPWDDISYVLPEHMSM
Description: Compounds of the present invention were evaluated in an ACLY Coupled Assay.
The assay protocol for the Coupled Assay (below) was followed:
b) Add 1 μL cpds to 96 assay plate, Test cpd conc: 100/30/10 μM top dose, 3 folds dilution, 10+0+control (control: buffer without ACL+DMSO) points, 1000 rpm for 1 min, incubation at 25° C. for 60 min

[3] = read-out: ACL-ADP-Glo (IC50), 3 nM ACL, 15 μM ATP, 3 μM CoA, 300 μM Citrate

| IC50 [1] | IC50 [2] | IC50 [1, 3] | IC50 ([2]; read-out: ACL-MDH Coupled Assay (IC50), 8 nM ACL, 60 μM CoA Na2, 85 μM Citrate, 250 μM ATP, 250 μM NADH) | SMILES |
| --- | --- | --- | --- | --- |
| 50 to 500 nM | 500 to 30000 nM |  |  | O=C(c1cc(Cl)c(O)c(S(=O)(=O)Nc2cc(-c3ccncc3)ccc2F)c1)N1CCC1 [I-202, 5-(azetidine-1-carbonyl)-3-chloro-N-[2-fluoro-5-(pyridin-4-yl)phenyl]-2-hydroxybenzene-1-sulfonamide] |
| 500 to 20000 nM | 500 to 30000 nM |  |  | O=C(O)c1ccc(-c2ccccc2)cc1NS(=O)(=O)c1cc(Cl)c[nH]c1=O [I-350, 3-((5-chloro-2-oxo-1,2-dihydropyridine)-3-sulfonamido)-[1,1′-biphenyl]-4-carboxylic acid] |
|  | 50 to 500 nM | < 50 nM |  | NC1CN(C(=O)c2cc(Cl)c(O)c(S(=O)(=O)Nc3cc(-c4ccccc4)c(F)cc3F)c2)C1 [I-200, 5-(3-aminoazetidine-1-carbonyl)-3-chloro-N-[4,6-difluoro-[1,1-biphenyl]-3-yl]-2-hydroxybenzene-1-sulfonamide] |
|  | 50 to 500 nM | < 50 nM |  | CC(=O)NCCOC(=O)c1cc(Cl)c(O)c(S(=O)(=O)Nc2cc(-c3ccccc3)c(F)cc2F)c1 [I-112, 2-acetamidoethyl 3-chloro-5-(N-(4,6-difluoro-[1,1′-biphenyl]-3-yl)sulfamoyl)-4-hydroxybenzoate] |
| 500 to 20000 nM | 500 to 30000 nM |  |  | CC(C)(Oc1ccc(-c2ccccc2)cc1NS(=O)(=O)c1cc(Cl)cc(Cl)c1O)C(=O)O [I-239, 2-((3-((3,5-dichloro-2-hydroxyphenyl)sulfonamido)-[1,1′-biphenyl]-4-yl)oxy)-2-methylpropanoic Acid] |
|  |  | < 50 nM | < 50 nM | NC1CN(C(=O)c2cc(Cl)c(O)c(S(=O)(=O)Nc3cc(-c4cc5ccccc5s4)c(F)cc3F)c2)C1 [I-282, 5-(3-aminoazetidine-1-carbonyl)-N-(5-(benzo[b]thiophen-2-yl)-2,4-difluorophenyl)-3-chloro-2-hydroxybenzenesulfonamide] |
| 500 to 20000 nM | 500 to 30000 nM |  |  | O=C(O)COc1c(Br)cc(Cl)cc1S(=O)(=O)Nc1cc(-c2ccccc2)ccc1F [I-46, 2-(2-bromo-4-chloro-6-(N-(4-fluoro-[1,1′-biphenyl]-3-yl)sulfamoyl)phenoxy)acetic Acid] |
| 500 to 20000 nM | 500 to 30000 nM |  |  | O=C(O)c1ccc(-c2ccccc2)cc1NS(=O)(=O)Cc1ccc(C(F)(F)F)cc1 [I-299, 3-(((4-(trifluoromethyl)phenyl)methyl)sulfonamido)-[1,1′-biphenyl]-4-carboxylic acid] |
| 50 to 500 nM | 50 to 500 nM |  |  | O=C(O)c1ccc(-c2ccccc2)cc1NS(=O)(=O)c1cc(Br)cc(C(F)(F)F)c1 [I-306, 3-((3-bromo-5-(trifluoromethyl)phenyl)sulfonamido)-[1,1′-biphenyl]-4-carboxylic acid] |
| 500 to 20000 nM | 500 to 30000 nM |  |  | O=S(=O)(Nc1cc(-c2nn[nH]n2)ccc1F)c1cc(Cl)cc(Cl)c1O [I-24, 3,5-dichloro-N-[2-fluoro-5-(2H-1,2,3,4-tetrazol-5-yl)phenyl]-2-hydroxybenzene-1-sulfonamide] |
| 50 to 500 nM | 500 to 30000 nM |  |  | Cn1ccnc1-c1cc(Cl)c(O)c(S(=O)(=O)Nc2cc(-c3ccccc3)ccc2O)c1 [I-133, 3-chloro-2-hydroxy-N-(4-hydroxy-[1,1′-biphenyl]-3-yl)-5-(1-methyl-1H-imidazol-2-yl)benzenesulfonamide] |
| 50 to 500 nM | 50 to 500 nM |  |  | O=C(O)c1cc(Cl)c(O)c(S(=O)(=O)Nc2cc(-c3ccccc3)c(F)cc2F)c1 [I-95, 3-chloro-5-(N-(4,6-difluoro-[1,1′-biphenyl]-3-yl)sulfamoyl)-4-hydroxybenzoic Acid] |
| 500 to 20000 nM | 500 to 30000 nM |  |  | O=C(O)c1ccc(-c2ccccc2)cc1NS(=O)(=O)CC1Cc2ccccc2C1 [I-328] |
| 500 to 20000 nM | 500 to 30000 nM |  |  | O=C(O)c1cc(Cl)c(O)c(S(=O)(=O)Nc2cc(-c3ccccc3)cc(F)c2F)c1 [I-115, 3-chloro-5-[(2,3-difluoro-5-phenylphenyl)sulfamoyl]-4-hydroxybenzoic Acid] |
| 500 to 20000 nM | 500 to 30000 nM |  |  | O=C(O)c1ccc(-c2cc3ccccc3s2)cc1NS(=O)(=O)c1cc(Cl)cc(Cl)c1 [I-293, 4-(benzo[b]thiophen-2-yl)-2-((3,5-dichlorophenyl)sulfonamido)benzoic acid] |
| 500 to 20000 nM | 500 to 30000 nM |  |  | O=S(=O)(Nc1cc(-c2ccccc2)c(F)cc1F)c1cc(-c2nnn[nH]2)cc(Cl)c1O [I-269, 3-chloro-N-[4,6-difluoro-[1,1-biphenyl]-3-yl]-2-hydroxy-5-(1H-1,2,3,4-tetrazol-5-yl)benzene-1-sulfonamide] |
| 50 to 500 nM | 500 to 30000 nM |  |  | CO[C@@H]1CCN(C(=O)c2cc(Cl)c(O)c(S(=O)(=O)Nc3cc(-c4ccccc4)c(F)cc3F)c2)C1 [I-104, 3-chloro-N-(2,4-difluoro-5-phenylphenyl)-2-hydroxy-5-[[(3R)-3-methoxypyrrolidin-1-yl]carbonyl]benzene-1-sulfonamide] |
| 500 to 20000 nM | 500 to 30000 nM |  |  | O=C(O)c1cc(F)c(-c2ccccc2)cc1NS(=O)(=O)c1cc(Cl)cc(Cl)c1O [I-289, 5-((3,5-dichloro-2-hydroxyphenyl)sulfonamido)-2-fluoro-[1,1′-biphenyl]-4-carboxylic Acid] |

| IC50 [1] | IC50 [2] | IC50 [1, 3] | IC50 ([2]; read-out: ACL-MDH Coupled Assay (IC50), 8 nM ACL, 60 μM CoA Na2, 85 μM Citrate, 250 μM ATP, 250 μM NADH) | SMILES |
| --- | --- | --- | --- | --- |
| 50 to 500 nM | 50 to 500 nM |  |  | COc1ccc(-c2ccccc2)cc1NS(=O)(=O)c1cc(C#N)cc(Cl)c1O [I-58, 3-chloro-5-cyano-2-hydroxy-N-(2-methoxy-5-phenylphenyl)benzene-1-sulfonamide] |
| 500 to 20000 nM | 500 to 30000 nM |  |  | CC(C)n1c(NS(=O)(=O)c2cc(Cl)cc(Cl)c2O)c(-c2ccc(F)cc2)c2ccccc21 [I-134, 3,5-dichloro-N-(3-(4-fluorophenyl)-1-isopropyl-1H-indol-2-yl)-2-hydroxybenzenesulfonamide] |
| 50 to 500 nM | 500 to 30000 nM |  |  | CO[C@@H]1CCN(C(=O)c2cc(Cl)c(O)c(S(=O)(=O)Nc3cc(-c4ccccc4)ccc3F)c2)C1 [I-141, 3-chloro-N-[4-fluoro-[1,1-biphenyl]-3-yl]-2-hydroxy-5-[(3R)-3-methoxypyrrolidine-1-carbonyl]benzene-1-sulfonamide] |
| 500 to 20000 nM | 500 to 30000 nM |  |  | CCN(c1ccc(Cl)cc1)S(=O)(=O)c1cc(Br)cc(Cl)c1O [I-513, 5-bromo-3-chloro-N-(4-chlorophenyl)-N-ethyl-2-hydroxybenzene Sulfonamide] |
| 500 to 20000 nM | 500 to 30000 nM |  |  | O=c1[nH]cc(Cl)cc1S(=O)(=O)Nc1cc(-c2cc3ccccc3s2)ccc1F [I-367, N-(5-(benzo[b]thiophen-2-yl)-2-fluorophenyl)-5-chloro-2-oxo-1,2-dihydropyridine-3-sulfonamide] |
| 500 to 20000 nM | 500 to 30000 nM |  |  | O=C(O)c1ccc(-c2cc3ccccc3s2)cc1NS(=O)(=O)c1cc(Cl)cc(C(F)(F)F)c1 [I-294, 4-(benzo[b]thiophen-2-yl)-2-((3-chloro-5-(trifluoromethyl)phenyl)sulfonamido)benzoic Acid] |
| 50 to 500 nM | 500 to 30000 nM |  |  | O=C(O)COc1ccc(-c2ccccc2)cc1NS(=O)(=O)c1cc(Cl)cc(Cl)c1O [I-212, 2-[[3-(3,5-dichloro-2-hydroxybenzenesulfonamido)-[1,1-biphenyl]-4-yl]oxy]acetic Acid] |
| 50 to 500 nM | 50 to 500 nM |  |  | CC(C)C(=O)Oc1c(Cl)cc(C(=O)N2CCC2)cc1S(=O)(=O)Nc1cc(-c2ccccc2)c(F)cc1F [I-158, 4-(azetidine-1-carbonyl)-2-chloro-6-([4,6-difluoro-[1,1-biphenyl]-3-yl]sulfamoyl)phenyl 2-methylpropanoate] |
| 50 to 500 nM | 500 to 30000 nM |  |  | O=C(c1cc(Cl)c(O)c(S(=O)(=O)Nc2cc(C3CC3)c(F)cc2F)c1)N1CC(F)C1 [I-194, 3-chloro-N-(5-cyclopropyl-2,4-difluorophenyl)-5-(3-fluoroazetidine-1-carbonyl)-2-hydroxybenzene-1-sulfonamide] |
| 500 to 20000 nM | 500 to 30000 nM |  |  | O=C(O)c1ccc(-c2ccccc2)cc1NS(=O)(=O)c1ccnn1CCc1ccccc1 [I-330] |
| 500 to 20000 nM | 500 to 30000 nM |  |  | O=C(O)c1ccc(-c2ccccc2)cc1NS(=O)(=O)Cc1cc(Cl)cc(Cl)c1 [I-305, 3-(((3,5-dichlorophenyl)methyl)sulfonamido)-[1,1′-biphenyl]-4-carboxylic acid] |
| 500 to 20000 nM | 500 to 30000 nM |  |  | O=C(c1cc(Cl)c(O)c(S(=O)(=O)Cc2cc(-c3ccccc3)c(F)cc2F)c1)N1CCCC1 [I-211, (3-chloro-5-(((4,6-difluoro-[1,1′-biphenyl]-3-yl)methyl)sulfonyl)-4-hydroxyphenyl)(pyrrolidin-1-yl)methanone] |
| 500 to 20000 nM | 500 to 30000 nM |  |  | COc1cc(F)c(-c2cc3ccccc3s2)cc1NS(=O)(=O)c1cc(C(=O)O)cc(Cl)c1O [I-510] |
| 50 to 500 nM | 50 to 500 nM |  |  | O=C(O)c1ccc(-c2cccs2)cc1NS(=O)(=O)c1cc(Cl)cc(C(F)(F)F)c1 [I-366, 2-((3-chloro-5-(trifluoromethyl)phenyl)sulfonamido)-4-(thiophen-2-yl)benzoic Acid] |
| 500 to 20000 nM | 500 to 30000 nM |  |  | O=C(c1cc(Cl)c(O)c(S(=O)(=O)Nc2cc3ccsc3cc2F)c1)N1CCC1 [I-221, 5-(azetidine-1-carbonyl)-3-chloro-N-(6-fluoro-1-benzothiophen-5-yl)-2-hydroxybenzene-1-sulfonamide] |
| 500 to 20000 nM | 500 to 30000 nM |  |  | CC#Cc1cc(Cl)ccc1NS(=O)(=O)c1cc(Br)cc(Cl)c1O [I-512] |
| 50 to 500 nM | 50 to 500 nM |  |  | COc1ccc(-c2ccccc2)cc1NS(=O)(=O)c1cc(C(=O)N(C)C)cc(Cl)c1O [I-56, 3-chloro-4-hydroxy-5-[(2-methoxy-5-phenylphenyl)sulfamoyl]-N,N-dimethylbenzamide] |
| 500 to 20000 nM | 500 to 30000 nM |  |  | O=C(c1cncs1)N(c1ccc(Cl)cc1)S(=O)(=O)c1cc(Br)cc(Cl)c1O [I-511, N-((5-bromo-3-chloro-2-hydroxyphenyl)sulfonyl)-N-(4-chlorophenyl)thiazole-5-carboxamide] |

| SMILES | IC50 [1] | IC50 [2] | IC50 [1, 3] | IC50 ([2]; read-out: ACL-MDH Coupled Assay (IC50), 8 nM ACL, 60 μM CoA Na2, 85 μM Citrate, 250 μM ATP, 250 μM NADH) |
| --- | --- | --- | --- | --- |
| CC(C)NC(=O)c1cc(Cl)c(O)c(S(=O)(=O)Nc2cc(-c3ccccc3)c(F)cc2F)c1 [I-93] |  | 50 to 500 nM | < 50 nM |  |
